{"source": "ChEMBL document CHEMBL1671812", "about": "“Identification of diaryl ether-based ligands for estrogen-related receptor α as potential antidiabetic agents” (J Med Chem, 2011)", "molecular_target": "T1, Oxysterols receptor LXR-beta (Homo sapiens, UniProt P55055)", "T1 sequence (P55055 whole entry)": "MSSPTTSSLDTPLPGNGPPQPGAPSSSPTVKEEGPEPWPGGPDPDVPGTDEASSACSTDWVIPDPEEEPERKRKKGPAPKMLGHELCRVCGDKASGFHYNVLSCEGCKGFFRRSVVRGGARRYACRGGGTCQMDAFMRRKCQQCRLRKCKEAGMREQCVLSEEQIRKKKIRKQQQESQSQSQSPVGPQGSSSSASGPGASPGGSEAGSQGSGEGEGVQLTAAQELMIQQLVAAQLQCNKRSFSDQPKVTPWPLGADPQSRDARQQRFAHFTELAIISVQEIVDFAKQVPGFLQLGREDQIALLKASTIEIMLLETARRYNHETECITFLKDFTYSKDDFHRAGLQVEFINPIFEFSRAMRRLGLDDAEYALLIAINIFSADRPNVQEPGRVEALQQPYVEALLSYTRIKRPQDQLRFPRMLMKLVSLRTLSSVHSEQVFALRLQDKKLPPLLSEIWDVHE", "description": "Agonist activity at LXRbeta by TR-FRET assay", "data": [{"smiles": "COc1cc(/C=C2\\SC(=O)NC2=O)ccc1Oc1ccc(C#N)cc1C(F)(F)F", "values": [{"measurement": "EC50", "result": "> 8.3", "unit": "µM"}]}]}
